This note sets out measurements from article PMC5994430, “Mitochondrial Delivery of Phenol Substructure Triggers Mitochondrial Depolarization and Apoptosis of Cancer Cells” (Frontiers in Pharmacology, 2018).

Where only a bound is given, the exact number is not on record here.

Type in all cases: cell-based, Human
One assay deals with caspase 3. The experiment in a line: Caspase 3 activity in A549 cell lysates. Conditions: 0.1 μM, 24 h. On the procedure:
The activity of caspase 9 and 3 was measured by incubating 20 μg cell lysates with the respective fluorogenic substrates Ac-LEHD-AMC (LEHD-AMC) or DEVD-AMC (DEVD-AMC), as reported ([Pinzón-Daza et al., 2012]). Results were expressed as nmoles AMC/mg protein.
FIGURE 7 Effects of phenol TPP-derivatives on mitochondria-dependent apoptosis. A549 and BEAS-2B cells were incubated 24 h in fresh medium (ctrl) or in medium containing 0.1 μM of 1 or 2. (A,B) The activity of caspase 9 and 3 was measured fluorimetrically, in duplicates. Data are means ± SD (n = 3). For both panels: ^∗p < 0.001 vs. A549 ctrl cells; °p < 0.001 for BEAS-2B cells vs. the corresponding condition in A549 cells. (C,D) Cell cycle distribution, measured in duplicates. Data are means ± SD (n = 3). For both panels: ^∗p < 0.001 vs. A549 ctrl cells: °p < 0.001 for BEAS-2B cells vs. the corresponding condition in A549 cells. (E) Bright field microscope analysis of cells. Magnification: 60 × objective (0.52 numerical aperture); 10 × ocular lens. Bar: 20 μM. The micrographs are representative of three experiments with similar results.

In a further assay the test system is A549 cells. Description: Mitochondrial mass (MitoTracker Green staining). Conditions: 0.1 μM, 4 h. On the procedure: The amount of proteins in mitochondrial extracts, normalized to the total amount of cellular proteins, was considered an index of mitochondrial mass ([Jean et al., 2015]). Mitochondria biogenesis was evaluated by measuring the expressions of subunit I of COX-I, which is encoded by mitochondrial DNA, and of the SDH-A of complex II, which is encoded by nuclear DNA, using the MitoBiogenesis^TM In-Cell ELISA Kit (Abcam), following the manufacturer’s instructions. The unit (U) of each protein/mg mitochondrial proteins were calculated. Results were expressed as COX-1/SDH-A ratio.
0.5 × 10^5 cells were grown on sterile glass coverslips. […] The samples were analyzed with an Olympus FV300 laser scanning confocal microscope equipped with a Blue Argon (488 nm) laser, a Green Helium Neon (543 nm) laser, and FluoView 300 software (Olympus Biosystems, Hamburg, Germany). […]
[t] […] (E,F) The electron transport was measured spectrophotometrically in duplicates. ATP levels in mitochondrial extracts was measured by a chemiluminescence-based assay, in duplicates. […] (G,H) ROS amount in mitochondrial extracts and mitochondrial damage were measured fluorimetrically, in duplicates. […] There were no statistically significant differences between untreated (ctrl) and compound 1/compound 2-treated BEAS-2B cells for all the parameters analyzed in this figure.

Assay [1] relates to mitofusin 1 (MFN1) and mitofusin 2 (MFN2). The experiment in a line: qRT-PCR of mitofusin mRNA in A549 cells. Conditions: 0.1 μM, 4 h. As to the method: Supplementary Figure 4 Effects of TPP-derivatives on mitofusin 1 and mitofusin 2 expression.
A549 and BEAS-2B cells were incubated 4 h in fresh medium (ctrl) or with 0.1 µM of 1 and 2.
Expression of mitofusin 1 (MFN1) and mitofusin 2 (MFN2) mRNA was evaluated by qRT-PCR in
triplicates. Data are means ± SD (n=3).
(1 picture or pasted object on this page, not shown here)
(In general: In qPCR the cycle at which signal appears reflects the starting amount.)

For a further assay, the system named is U-2OS cells. The experiment in a line: Cell viability (neutral red), IC50. Conditions: U-2OS osteosarcoma cells, CompuSyn.

Take `CC(=O)Oc1ccc(C[P+](c2ccccc2)(c2ccccc2)c2ccccc2)cc1.[Br-]` [Compound 1]: the “activity of caspase 3” value in the assay on caspase 3 is recorded as “strong activation”. The mitochondrial mass result in the assay on A549 cells is “reduced the mitochondrial mass”. In assay [1], the “expression of mitofusin 1 (MFN1) and mitofusin 2 (MFN2)” value was “no changes”.

Consider `O=C(Oc1ccc(C[P+](c2ccccc2)(c2ccccc2)c2ccccc2)cc1C(F)(F)F)c1ccccc1.[Br-]` [Compound 2], for which the IC50 (usually the concentration needed to halve the response being measured) in the assay with U-2OS cells (Homo sapiens, U2OS) is below 1 µM; in the assay with U-2OS cells, 0.63 ± 0.1 µM. For the same compound, the “activity of caspase 3” value in the assay on caspase 3 is listed as “strong activation”. Moreover, in the assay with A549 cells, the mitochondrial mass result is on record as “reduced the mitochondrial mass”. Also, the “expression of mitofusin 1 (MFN1) and mitofusin 2 (MFN2)” value in assay [1] was “no changes”.
